In US12371432B2, “Haloallylamine compounds and application thereof” (TransThera Sciences (Nanjing), Inc., priority 2019, dated 2025) one finds IC50 data, which are given here for twelve compounds.

Where a name gives a salt, the structure may show the parent alone.

As usually defined, the IC50 is the midpoint of a concentration-inhibition curve. Higher therefore signals lower potency.

In the assay the target is T1, rhAOC1 (Homo sapiens, UniProt P19801).
T1 construct: purchased R&D
T1 sequence (P19801 20-751): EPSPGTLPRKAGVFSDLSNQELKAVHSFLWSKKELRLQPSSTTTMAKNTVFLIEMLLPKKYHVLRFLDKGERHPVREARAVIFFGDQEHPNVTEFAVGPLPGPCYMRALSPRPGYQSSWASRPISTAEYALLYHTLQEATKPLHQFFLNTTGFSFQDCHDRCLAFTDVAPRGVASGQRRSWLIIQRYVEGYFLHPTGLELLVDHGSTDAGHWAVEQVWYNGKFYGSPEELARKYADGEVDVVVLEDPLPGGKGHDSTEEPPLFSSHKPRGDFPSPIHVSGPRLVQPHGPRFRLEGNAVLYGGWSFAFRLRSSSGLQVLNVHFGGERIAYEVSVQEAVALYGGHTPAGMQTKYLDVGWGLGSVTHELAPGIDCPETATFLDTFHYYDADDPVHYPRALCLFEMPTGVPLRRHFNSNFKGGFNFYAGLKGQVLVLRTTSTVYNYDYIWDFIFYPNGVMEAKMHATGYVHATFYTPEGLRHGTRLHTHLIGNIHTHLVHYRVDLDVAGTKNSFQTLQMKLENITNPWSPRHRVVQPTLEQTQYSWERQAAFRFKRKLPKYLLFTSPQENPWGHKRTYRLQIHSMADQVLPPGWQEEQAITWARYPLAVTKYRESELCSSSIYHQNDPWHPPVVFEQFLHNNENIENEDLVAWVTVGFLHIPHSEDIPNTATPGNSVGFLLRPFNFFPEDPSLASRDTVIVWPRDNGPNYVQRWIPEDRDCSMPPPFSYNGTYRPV
Description: Selectivity against rhAOC1 enzyme (Biological Example 2). It counts as biochemical. The settings on record: Table 2; histamine substrate, Amplex Red/HRP. The procedure: 2. Selectivity of Compounds Against rhAOC1 Enzyme
(1) Instrument, Consumable and Reagent
Microplate reader (Perkin Elmer, Nivo 5S), black unclear-bottom 96-well plate (Corning) and rhAOC1 (R&D)
(2) Preparation of Concentration Gradient Compound Solutions
An appropriate amount of the compound to be tested was taken, dissolved in DMSO to 10 mM and then stored. Before the study, an appropriate amount of mother liquor of the 10 mM compound to be tested was taken and gradiently diluted 3-fold with DMSO, 10 concentration gradients in total. Each concentration gradient was then diluted 10-fold with 0.1 M of PBS.
(3) Preparation of Enzyme Solutions
An appropriate amount of rhAOC1 mother liquor with a concentration of 0.441 mg/mL was taken and diluted with an appropriate amount of 50 mM HEPES buffer solution to obtain enzyme solutions of 4× concentrations.
(4) Preparation of Substrate Mixtures of 2× Concentrations
An appropriate amount of histamine was weighed and dissolved with 50 mM of HEPES buffer solution to obtain 20 mM of histamine solution. The histamine solution was added with 2 mM of Amplex Red mother liquor and 500 U/mL of HRP mother liquor and diluted with 50 mM of HEPES buffer solution to obtain substrate mixtures of 2× concentrations.
10 μL compound solutions of different concentrations, 25 μL rhAOC1 enzyme solutions of 4× concentrations and 15 μL of 50 mM HEPES buffer solution were first added into a 96-well plate, shaken to be mixed uniformly and then incubated at 37° C. for 30 min. 50 μL substrate mixtures of 2× concentrations were then added into each well, and the microplate reader was immediately used to detect fluorescence intensity of each well with 580 nm (20 nm) exciting light and 620 nm (10 nm) emission light for 5 min each time, 30 min in total. The inhibition rate was calculated according to the following formula: V (RFU/min)=(Ft (RFU)−F0 (RFU))/(time(min)) Inhibition rate (%)=100%−Vcmpd (RFU/min)/Vmax (RFU/min)×100%
V: fluorescence change rate; Ft: fluorescence reading at time point t; F0: initial fluorescence reading; Time: duration t; Vcmpd: fluorescence change rate of tested compound; Vmax: Max hole fluorescence change rate.
(6) Fitting of Dose-Response Curve
With the log value of concentration as the X axis and the percent inhibition rate as the Y axis, the log (inhibitor) vs. response-variable slope of analysis software GraphPad Prism 5 was used to fit a dose-response curve, thus obtaining the IC50 value of activity of each compound against the enzyme.
`CCN1CCc2nn(C/C(=C/F)CN)cc2C1=O` [Compound A6 hydrochloride, (E)-2-(2-(aminomethyl)-3-fluoroallyl)-5-ethyl-2,5,6,7-tetrahydro-4H-pyrazolo[4,3-c]pyridin-4-one] gave an IC50 of 8.95 µM. That is a single-digit micromolar value.
To `NC/C(=C\F)Cn1cc2c(c1)C(=O)N(C1CC1)CC2` [Compound A22, (E)-2-(2-(aminomethyl)-3-fluoroallyl)-5-cyclopropyl-2,5,6,7-tetrahydro-4H-pyrrolo[3,4-c]pyridin-4-one] belongs 14.8 µM.
To `CCn1ccc2nn(C/C(=C/F)CN)cc2c1=O` [Compound A28 hydrochloride, (E)-2-(2-(aminomethyl)-3-fluoroallyl)-5-ethyl-2,5-dihydro-4H-pyrazolo[4,3-c]pyridin-4-one] belongs 4.06 µM; to `CNC(=O)c1cnn(C/C(=C/F)CN)c1` [Compound B1, (E)-1-(2-(aminomethyl)-3-fluoroallyl)-N-methyl-1H-pyrazole-4-carboxamide], 3.18 µM; to `Cc1c2c(cn1C/C(=C/F)CN)C(=O)N(C1CC1)CC2` [Compound A35 hydrochloride, (E)-2-(2-(aminomethyl)-3-fluoroallyl)-5-cyclopropyl-1-methyl-2,5,6,7-tetrahydro-4H-pyrrolo[3,4-c]pyridin-4-one], 7.03 µM.
To `CCN1CCc2cn(C/C(=C/F)CN)cc2C1=O` [Compound A25, (E)-2-(2-(aminomethyl)-3-fluoroallyl)-5-ethyl-2,5,6,7-tetrahydro-4H-pyrrolo[3,4-c]pyridin-4-one] belongs 11.5 µM; to `Cl.NC/C(=C\F)Cn1cc2c(c1Cl)CCN(C1CC1)C2=O` [Compound A42 hydrochloride, (E)-2-(2-(aminomethyl)-3-fluoroallyl)-1-chloro-5-cyclopropyl-2,5,6,7-tetrahydro-4H-pyrrolo[3,4-c]pyridin-4-one], 28.9 µM; to `CCn1ccc2c(cnn2C/C(=C/F)CN)c1=O` [Compound A29 hydrochloride, (E)-1-(2-(aminomethyl)-3-fluoroallyl)-5-ethyl-1,5-dihydro-4H-pyrazolo[4,3-c]pyridin-4-one], 0.674 µM.
`NC/C(=C\F)Cn1c(Br)c2c(c1Br)C(=O)N(C1CC1)CC2` [Compound A33 hydrochloride, (E)-2-(2-(aminomethyl)-3-fluoroallyl)-1,3-dibromo-5-cyclopropyl-2,5,6,7-tetrahydro-4H-pyrrolo[3,4-c]pyridin-4-one]: the IC50 was greater than 100 µM.
The compound `CC(C)(C)N1CCc2nn(C/C(=C/F)CN)cc2C1=O` [Compound A7 hydrochloride, (E)-2-(2-(aminomethyl)-3-fluoroallyl)-5-tert-butyl-2,5,6,7-tetrahydro-4H-pyrazolo[4,3-c]pyridin-4-one] gave an IC50 of 50 µM. This counts as double-digit micromolar.
The compound `NC/C(=C\F)Cn1cc2c(=O)n(C3CC3)ccc2n1` [Compound A41, (E)-2-(2-(aminomethyl)-3-fluoroallyl)-5-cyclopropyl-2,5-dihydro-4H-pyrazolo[4,3-c]pyridin-4-one] displayed an IC50 of 9.65 µM. Compared with the last compound, the IC50 is about 5.2-fold lower.
On to `Cl.NC/C(=C\F)Cn1cc2c(c1Br)CCN(C1CC1)C2=O` [Compound A32 hydrochloride, (E)-2-(2-(aminomethyl)-3-fluoroallyl)-1-bromo-5-cyclopropyl-2,5,6,7-tetrahydro-4H-pyrrolo[3,4-c]pyridin-4-one], for which half-maximal inhibition (IC50) required 23.6 µM.
